From the Bradley open melting point set (2014)
Where “and” joins values, the source holds several entries; their conditions need not be identical. Equal values may be shown once. Where a name gives a salt, the structure may show the parent alone.

Row | melting point | SMILES
1 | 168 °C | CN(C)[C@@H]1C(O)=C(C(N)=O)C(=O)[C@@]2(O)C(O)=C3C(=O)c4c(O)ccc(Cl)c4[C@@](C)(O)[C@H]3C[C@@H]12 [chlortetracycline]
2 | 148 °C (3×) and 149 °C | CC(C)CCC[C@@H](C)[C@H]1CC[C@H]2[C@@H]3CC=C4C[C@@H](O)CC[C@]4(C)[C@H]3CC[C@]12C [cholesterol]
3 | 255 °C | c1ccc2c(c1)ccc1c3ccccc3ccc21 [chrysene]
4 | -48 °C | ClC/C=C\CCl [cis-1,4-dichloro-2-butene]
5 | -113 °C | C/C=C\Br [cis-1-bromo-1-propene]
6 | -85 °C | C[C@@H]1CNC[C@H](C)O1 [cis-2,6-dimethylmorpholine]
7 | 118 °C | O=C(O)/C=C(/CC(=O)O)C(=O)O [cis-aconitic acid]
8 | 2 °C | C(=C/c1ccccc1)/c1ccccc1 [cis-stilbene]
9 | 76 °C | COc1cc(/C=C/CO)ccc1O [coniferyl alcohol]
10 | 30 °C | O=C(O)C1CCCCC1 [cyclohexanecarboxylic acid] [listing 1 of 3 here]
11 | 31 °C | O=C(O)C1CCCCC1 [cyclohexanecarboxylic acid] [listing 2 of 3 here]
12 | -29 °C and -27.9 °C | O=C1CCCCC1 [cyclohexanone]
13 | 55 °C | O=C(c1ccccc1)C1CCCCC1 [cyclohexyl phenyl ketone]
14 | 6 °C | c1ccc(C2CCCCC2)cc1 [cyclohexylbenzene]
15 | -85 °C | NC1CCCC1 [cyclopentylamine]
16 | 32 °C | CCCCCCCCCC(=O)O [decanoic_acid]
17 | 33 °C | CCCCS(=O)CCCC [di-n-butyl sulfoxide]
18 | -62 °C | CCCCNCCCC [di-n-butylamine]
19 | 40 °C | CCCCCCCCCCCCSCCCCCCCCCCCC [di-n-dodecyl sulfide]
20 | -26 °C | c1ccc(CNCc2ccccc2)cc1 [dibenzylamine]
21 | -11 °C | CCOC(=O)/C=CC(=O)OCC [diethyl maleate]
22 | -40 °C | CCOC(=O)C(=O)OCC [diethyl oxalate]
23 | -18 °C | CCOC(=O)CCCCC(=O)OCC [diethyl_adipate]
24 | -10 °C | O=C(C=C/C(=O)OCC)OCC [diethyl_maleate]
25 | -68 °C | CCCCOCCOCCO [diethylene glycol mono-n-butyl ether]
26 | -86 °C | CC(C)OC(C)C [diisopropyl_ether]

The remaining lines, values behind:

Row | SMILES | melting point
27 | OC(O)C(Cl)(Cl)Cl [chloral hydrate] | 57 °C
28 | O=C(N[C@H](CO)[C@H](O)c1ccc([N+](=O)[O-])cc1)C(Cl)Cl [chloramphenicol] | 151 °C
29 | O=C1OC(=O)C2C1C1(Cl)C(Cl)=C(Cl)C2(Cl)C1(Cl)Cl (configuration not stated) [chlorendic anhydride] | 237 °C
30 | O=C(CCl)OC(=O)CCl [chloroacetic anhydride] | 58 °C
31 | ClC(Br)Br [chlorodibromomethane] | -22 °C
32 | C[SiH](C)Cl [chlorodimethylsilane] | -111 °C
33 | C[Si](C)(C)Cl [chlorotrimethylsilane] | -58 °C
34 | CC(C)CCCC(C)C1CCC2C3CCC4CCCCC4(C)C3CCC12C (configuration not stated) [cholestane] | 80 °C
35 | CC[C@@H]1CCC[C@@H]1CC [cis-1,2-diethylcyclopentane] | -118 °C
36 | C[C@@H]1CCC[C@H](C)C1 [cis-1,3-dimethylcyclohexane] | -76 °C
37 | C/C=C\c1ccccc1 [cis-1-phenyl-1-propene] | -62 °C
38 | C1CC[C@H]2CCCC[C@H]2C1 [cis-decalin] | -43 °C
39 | COC(=O)[C@H]1[C@@H](OC(=O)c2ccccc2)C[C@@H]2CC[C@H]1N2C [cocaine] | 98 °C
40 | O=C4\C=C2/[C@]([C@H]1CC[C@@]3([C@@](O)(C(=O)CO)CC[C@H]3[C@@H]1CC2)C)(C)CC4 [cortexolone] | 208 °C
41 | C[C@]12C[C@H](O)[C@H]3[C@@H](CCC4=CC(=O)CC[C@@]43C)[C@@H]1CC[C@@H]2C(=O)CO [corticosterone] | 145 °C
42 | COc1cc(/C=C/C(=O)CC(=O)/C=C/c2ccc(O)c(OC)c2)ccc1O [curcumin] | 173 °C
43 | N#CCC(=O)O [cyanoacetic acid] | 67 °C
44 | O=C1CCC1 [cyclobutanone] | -51 °C
45 | O=C1CCCCCCCCCCC1 [cyclododecanone] | 61 °C
46 | C1CCCCC1 [cyclohexane] | 7 °C
47 | O=C(O)C1CCCCC1 [cyclohexanecarboxylic acid] [listing 3 of 3 here] | 31.5 °C
48 | C1CCCC1 [cyclopentane] | -94 °C (2×) and -93.9 °C
49 | O=C(O)C1CCCC1 [cyclopentanecarboxylic acid] | 3.5 °C
50 | OC1CCCC1 [cyclopentanol] [listing 1 of 3 here] | -17.5 °C and -16.2 °C
51 | OC1CCCC1 [cyclopentanol] [listing 2 of 3 here] | -19 °C
52 | OC1CCCC1 [cyclopentanol] [listing 3 of 3 here] | -19 °C

Row | SMILES | melting point
53 | O=C1CCCC1 [cyclopentanone] | -51 °C
54 | O=C(O)C1CC1 [cyclopropanecarboxylic acid] | 18 °C and 18.5 °C and 16.8 °C
55 | C#C[C@]5(O)CC[C@H]4[C@H]3[C@@H]([C@@]2(/C(=C\c1oncc1C2)CC3)C)CC[C@@]45C [danazol] | 225 °C
56 | Nc1ccc(S(=O)(=O)c2ccc(N)cc2)cc1 [dapsone] | 176 °C
57 | CCCCCCCCCC(=O)O [decanoic acid] | 31 °C
58 | C[C@]12CC[C@H]3[C@@H](CCC4=CC(=O)CC[C@@]43C)[C@@H]1CC[C@@H]2C(=O)CO [deoxycorticosterone] | 142 °C
59 | C[C@@H]1C[C@H]2[C@@H]3CCC4=CC(=O)C=C[C@]4(C)[C@@]3(F)[C@@H](O)C[C@]2(C)[C@@]1(O)C(=O)CO [dexamethasone] | 263 °C
60 | CCCOCCC [di-n-propyl ether] | -122 °C
61 | C=CCSCC=C [diallyl sulfide] | -83 °C
62 | OB(O)c1cccc2c1oc1ccccc12 [dibenzofuran-4-boronic acid] | 289 °C
63 | c1ccc2c(c1)oc1ccccc12 [dibenzofuran] [listing 1 of 2 here] | 81 °C
64 | c1ccc2c(c1)oc1ccccc12 [dibenzofuran] [listing 2 of 2 here] | 82 °C
65 | O=C1c2ccccc2CCc2ccccc21 [dibenzosuberone] | 33 °C
66 | O=C(O)C(Cl)Cl [dichloroacetic acid] | 10 °C
67 | C[Si](C)(Cl)Cl [dichlorodimethylsilane] | -76 °C
68 | ClCCl [dichloromethane] | -95 °C
69 | ClB(Cl)c1ccccc1 [dichlorophenylborane] | 7 °C
70 | C1CCC(NC2CCCCC2)CC1 [dicyclohexylamine] | -2 °C
71 | CCOCOCC [diethoxymethane] | -66 °C
72 | CCOC(=O)C(NC(C)=O)C(=O)OCC [diethyl acetamidomalonate] | 98 °C
73 | CCOC(=O)C(C(=O)OCC)c1ccccc1 [diethyl phenylmalonate] | 16 °C
74 | CCOC(=O)/C=C/C(=O)OCC [diethyl_fumarate] | 2 °C
75 | CCOCCOCCOCC [diethylene glycol diethyl ether] | -44 °C
76 | ICI [diiodomethane] | 6 °C
77 | CC1(C)CC(=O)CC(=O)C1 [dimedone] | 148 °C
